{Sucrose} = sucrose through a 1,5-bis(succinimidooxycarbonyloxy)pentane crosslinker
Tests used:
[1] = test system: RNA complementary to the oligonucleotide; experiment: RNase H assay (RNA-DNA heteroduplex formation); format: biochemical; details: Escherichia coli RNase H, 10 or 30 minutes, room temperature (FIG. 6)
Protocol: Radiolabeled oligonucleotide (30,000 CPM) was annealed to complementary RNA by incubation in 20 mM Tris-HCl (pH 7.5), 0.1 M KCl, 10 mM MgCl2, and 0.1 mM ATP in 10 μl for 5 minutes at 65° C. followed by slow cooling to room temperature. One unit of Escherichia coli RNase H was added and incubation at room temperature was continued for either 10 minutes or 30 minutes. After incubation, 5 μl of gel-loading buffer were added, and all samples were analyzed by polyacrylamide gel electrophoresis followed by autoradiography of the wet gel at −70° C.
Unconjugated and sucrose-conjugated phosphodiester and phosphorothioate oligonucleotides were tested for their ability to form stable RNA-DNA heteroduplexes by determining RNA susceptibility to degradation by RNase H. RNA complementary to the oligonucleotide was labeled at the 5′-end using γ-^32P-ATP and T4 polynucleotide kinase. Radiolabeled RNA was hybridized to either unconjugated phosphodiester, sucrose-conjugated phosphodiester, unconjugated phosphorothioate, or sucrose-conjugated phosphorothioate oligonucleotide. Heteroduplex formation was assayed by incubation with RNase H for either 10 minutes or 30 minutes.

Exonuclease-1 = target: T1, Exonuclease-1 (Escherichia coli, UniProt P04995); format: in vitro ADME; details: 0.5 or 1.0 unit Exonuclease-1, 30 minutes at 37° C., gel autoradiography (FIG. 3)
T1 sequence (P04995 1-475): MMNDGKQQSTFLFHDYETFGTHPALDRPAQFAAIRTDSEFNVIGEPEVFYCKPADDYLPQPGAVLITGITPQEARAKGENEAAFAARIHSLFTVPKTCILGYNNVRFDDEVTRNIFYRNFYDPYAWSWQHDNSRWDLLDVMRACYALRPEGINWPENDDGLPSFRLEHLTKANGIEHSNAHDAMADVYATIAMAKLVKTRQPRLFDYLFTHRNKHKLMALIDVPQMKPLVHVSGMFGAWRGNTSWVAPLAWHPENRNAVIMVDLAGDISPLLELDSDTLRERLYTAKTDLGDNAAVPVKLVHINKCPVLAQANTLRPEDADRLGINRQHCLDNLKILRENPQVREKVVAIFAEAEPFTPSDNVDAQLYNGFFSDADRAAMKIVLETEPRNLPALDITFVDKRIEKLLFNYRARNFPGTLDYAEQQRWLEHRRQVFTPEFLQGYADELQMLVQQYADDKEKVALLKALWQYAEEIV
Protocol: (§1) Electrophoresis was performed using 20% polyacrylamide gels containing […], 90 mM Tris-borate (pH 8.3), 2 mM EDTA, 0.02% ammonium persulfate, and 15 μl tetraethylediamine (TEMED). Samples were dissolved in gel-loading buffer (10 M urea, 1.5 mM EDTA, 0.05% xylene cyanol, and 0.05% bromophenol blue) and heated at 90° C. for 1 minute and chilled before application to polyacrylamide gels.
Radiolabeled oligonucleotide (30,000 CPM) was incubated with either 0.5 or 1.0 unit of Exonuclease-1 in 67 mM glycine (pH 9.5), 10 mM 2-mercaptoethanol, and 6.7 mM MgCl2 in 20 μl for 30 minutes at 37° C. After incubation, 5 μl of gel-loading buffer were added. All reactions were analyzed by polyacrylamide gel electrophoresis followed by autoradiography of the wet gel at −70° C.

[2] = Nuclease degradation assay in heat-inactivated 10% fetal bovine serum; format: in vitro ADME; details: phosphodiester oligonucleotides, up to 24 hours at 37° C. (FIG. 4)
Protocol: as §1
Radiolabeled oligonucleotide (30,000 CPM) was incubated in RPMI-1640 medium (GIBCO-BRL, Grand Island, N.Y.) containing 10% heat-inactivated fetal bovine serum at 37° C. Samples were removed at various times, mixed with gel-loading buffer, and frozen at −20 C. Samples were analyzed by polyacrylamide gel electrophoresis followed by autoradiography of the wet gel at −70° C.

Substance: sucrose-conjugated phosphodiester oligonucleotide: 19-mer phosphodiester oligonucleotide (Sequence ID No. 1) coupled at 3′-end to sucrose via crosslinker 1,5-bis(succinimidooxycarbonyloxy)pentane (GCTTCTGTGCTCATGGTCT; all phosphodiester, 3' {Sucrose}, sugars by position and methylation of C not given here; further chemistry not fully specified)
- RNA susceptibility to degradation by RNase H (stable RNA-DNA heteroduplex formation) [1]: degraded by RNase H
- degradation by Exonuclease-1 (Exonuclease-1): only negligible degradation
- degradation in heat-inactivated 10% fetal bovine serum [2]: relatively resistant to degradation

Substance: unconjugated phosphodiester oligonucleotide: phosphodiester oligonucleotide, 19 nucleotides in length, sequence of Sequence ID No. 1, unconjugated control (GCTTCTGTGCTCATGGTCT; all phosphodiester, sugars by position and methylation of C not given here)
- RNA susceptibility to degradation by RNase H (stable RNA-DNA heteroduplex formation) [1]: degraded by RNase H
- degradation by Exonuclease-1 (Exonuclease-1): degraded nearly completely
- degradation in heat-inactivated 10% fetal bovine serum [2]: highly susceptible to degradation

— patent US6444806B1, “Conjugates and methods of forming conjugates of oligonucleotides and carbohydrates” (Hisamitsu Pharmaceutical Co., Inc., priority 1996, dated 2002)
